Results from patent US4122034A, “Antimicrobial compositions” (Schering Corporation, priority 1975, dated 1978).

Key:
[1] = test system: Enterococcus; experiment: In vitro antibacterial activity, dilution in Mueller Hinton Agar (Table I); assay type: cell-based
Description: (§1) All the tests were carried out and (when necessary) scored under standard conditions. "MIC" means "minimum inhibitory concentration."
(§2) In vitro Antibacterial Activity of 2-aminoalkyl-3-phenyl-
(§3) indoles of the formula I. Dilution in Mueller Hinton Agar pH 7.4

[2] = test system: Escherichia coli; experiment: as above; assay type: cell-based
Description: as §1, §2, §3

[3] = test system: Klebsiella; experiment: as above; assay type: cell-based
Description: as §1, §2, §3

[4] = test system: Proteus mirabilis; experiment: as above; assay type: cell-based; details: Mueller Hinton Agar pH 7.4
Description: as §1, §2, §3

[5] = test system: Proteus morganii; experiment: as above; assay type: cell-based; details: Morganella morganii; strain Valz; Mueller Hinton Agar pH 7.4
Description: as §1, §2, §3

[6] = test system: Proteus rettgeri; experiment: as above; assay type: cell-based; details: Providencia rettgeri; 'Proteus rettgeri mirabilis' [sic]; Mueller Hinton Agar pH 7.4
Description: as §1, §2, §3

[7] = test system: Proteus vulgaris; experiment: as above; assay type: cell-based; details: strain Napol, Mueller Hinton Agar pH 7.4
Description: as §1, §2, §3

[8] = test system: Pseudomonas acruginosa; experiment: as above; assay type: cell-based
Description: as §1, §2, §3

[9] = test system: Salmonella; experiment: as above; assay type: cell-based
Description: as §1, §2, §3

[10] = test system: Staphylococcus aureus; experiment: as above; assay type: cell-based; details: Mueller Hinton Agar pH 7.4
Description: as §1, §2, §3

[11] = test system: Streptococcus pyogenes; experiment: as above; assay type: cell-based
Description: as §1, §2, §3

[12] = test system: Candida albicans; experiment: In vitro Anti-Candida activity, dilutions in Sabouraud's Dextrose Agar (Table III); assay type: cell-based; details: 48 h
Description: as §1
In vitro Anti-Candida Activity of 2-aminoalkyl-3-phenyl-
indoles of the formula I. Dilutions in Sabouraud's Dextrose
MIC (mcg/ml) after 48 hours

[13] = test system: Aspergillus niger 6275; experiment: In vitro antifungal activity, dilutions in Sabouraud's Dextrose Broth (Table IV); assay type: cell-based; details: after 96 hours
Description: as §1
(§4) In vitro Antifungal Activity of 2-amioalkyl-3-phenylindoles
(§5) of the formula I against Dermetophytes and Aspergillus.
(§6) Dilutions in Sabouraud's Dextrose Broth.

[14] = test system: Epidermophyton floccosum; experiment: as above; assay type: cell-based; details: after 96 hours
Description: as §1, §4, §5, §6

[15] = test system: Microsporum distortum; experiment: as above; assay type: cell-based; details: after 96 hours
Description: as §1, §4, §5, §6

[16] = test system: Microsporum nanum; experiment: as above; assay type: cell-based; details: Nannizzia nana; after 96 hours
Description: as §1, §4, §5, §6

[17] = test system: Trichophyton ascoides; experiment: as above; assay type: cell-based; details: after 96 hours
Description: as §1, §4, §5, §6

[18] = test system: Trichophyton discoides; experiment: as above; assay type: cell-based; details: after 96 hours
Description: as §1, §4, §5, §6

[19] = test system: Trichophyton megninii; experiment: as above; assay type: cell-based; details: Trichophyton rubrum; after 96 hours
Description: as §1, §4, §5, §6

[20] = test system: Trichophyton rubrum; experiment: as above; assay type: cell-based; details: 96 h
Description: as §1, §4, §5, §6

[21] = test system: Trichophyton soudenense; experiment: as above; assay type: cell-based; details: after 96 hours
Description: as §1, §4, §5, §6

[22] = test system: Tricoderm sp.; experiment: as above; assay type: cell-based; details: after 96 hours
Description: as §1, §4, §5, §6

[23] = test system: T. mentagrophytes; experiment: Effect against topical T. mentagrophytes infections in guinea pigs (Table VI); assay type: in vivo; set-up: Average Sum of lesion scores, Days 1-5 / Average Sum of lesion scores, Days 1-10: scale not given here; details: for Average Sum of lesion scores, Days 1-5: untreated controls 14.8; for Average Sum of lesion scores, Days 1-10: untreated controls 38.2
Description: as §1
Effect of some 2-aminoalkyl-3-phenylindoles of the formula II
against topical T. mentagrophytes infections in guinea pigs.

[24] = test system: Trychomonas vaginalis; experiment: In vitro Anti-Trichomonal activity (Table VII); assay type: cell-based
Description: as §1
In vitro Anti-Trichomonal Activity of some 2-aminoalkyl-3-
phenyl-indenes of formula II.

NCc1[nH]c2cc(Br)c(Cl)cc2c1-c1ccccc1 [D, 2-aminomethyl-6-bromo-5-chloro-3-phenylindole]
11.8: Average Sum of lesion scores, Days 1-5 ([23]; concentration 4%)
> 22 days: Average No. of Days to become negative, Cultures ([23]; concentration 1%) | Average No. of Days to become negative, Lesion ([23]; concentration 1%)
37.5 µg/mL: MIC ([12]; strain 4, after 48 hours)
8.8 days: Average No. of Days to become negative, Lesion ([23]; concentration 4%)
17.5 µg/mL: MIC ([8]; pH 7.4, strain 130, Mueller Hinton Agar pH 7.4) | MIC ([8]; pH 7.4, strain 762, Mueller Hinton Agar pH 7.4) | MIC ([12]; strain Blunden, after 48 hours) | MIC ([12]; strain Kennedy 1, after 48 hours) | MIC ([12]; strain Newcomb, after 48 hours) | MIC [13]
29.2: Average Sum of lesion scores, Days 1-10 ([23]; concentration 1%)
14.2: Average Sum of lesion scores, Days 1-10 ([23]; concentration 4%)
7.5 µg/mL: MIC [6] | MIC ([8]; pH 7.4, strain 138, Mueller Hinton Agar pH 7.4) | MIC ([8]; pH 7.4, strain 8709, Mueller Hinton Agar pH 7.4) | MIC ([8]; pH 7.4, strain Trav. 1, Mueller Hinton Agar pH 7.4) | MIC [14] | MIC [17] | MIC [18] | MIC ([20]; strain Blehl, after 96 hours) | MIC ([20]; strain Haggerty, after 96 hours) | MIC [22]
6.2 days: Average No. of Days to become negative, Cultures ([23]; concentration 4%)
11.6: Average Sum of lesion scores, Days 1-5 ([23]; concentration 1%)
20 µg/mL: IC50 ([24]; 50% suppression, read-out: Minimal Level to Produce 50% Suppression)
38 µg/mL: IC90 ([24]; 90% suppression, read-out: Minimal Level to Produce 90% Suppression)
150 µg/mL: MIC ([12]; strain 1, after 48 hours) | MIC ([12]; strain 2, after 48 hours) | MIC ([12]; strain 6, after 48 hours) | MIC ([12]; strain 8, after 48 hours) | MIC ([12]; strain 9, after 48 hours) | MIC ([12]; strain Atkisson, after 48 hours) | MIC ([12]; strain Bertrand, after 48 hours) | MIC ([12]; strain Bevan, after 48 hours) | MIC ([12]; strain Boyer, after 48 hours) | MIC ([12]; strain Burke, after 48 hours) | MIC ([12]; strain Frazier, after 48 hours) | MIC ([12]; strain Gay, after 48 hours) | MIC ([12]; strain Hons, after 48 hours) | MIC ([12]; strain Johnson, after 48 hours) | MIC ([12]; strain Kenndy 2, after 48 hours) | MIC ([12]; strain Lehtman, after 48 hours) | MIC ([12]; strain Sherod, after 48 hours) | MIC ([12]; strain Shurelli, after 48 hours) | MIC ([12]; strain Sparks, after 48 hours)
3 µg/mL: MIC ([1]; pH 7.4, strain 373, Mueller Hinton Agar pH 7.4) | MIC ([1]; pH 7.4, strain 0928/72, Mueller Hinton Agar pH 7.4) | MIC ([2]; pH 7.4, strain 777, Mueller Hinton Agar pH 7.4) | MIC ([2]; pH 7.4, strain 1574-1, Mueller Hinton Agar pH 7.4) | MIC ([2]; pH 7.4, strain 4195, Mueller Hinton Agar pH 7.4) | MIC ([2]; pH 7.4, strain 10536, Mueller Hinton Agar pH 7.4) | MIC ([2]; pH 7.4, strain JR66, Mueller Hinton Agar pH 7.4) | MIC ([3]; pH 7.4, strain 121, Mueller Hinton Agar pH 7.4) | MIC ([3]; pH 7.4, strain 3020, Mueller Hinton Agar pH 7.4) | MIC ([3]; pH 7.4, strain AD17, Mueller Hinton Agar pH 7.4) | MIC ([3]; pH 7.4, strain AD22, Mueller Hinton Agar pH 7.4) | MIC ([3]; pH 7.4, strain G3694, Mueller Hinton Agar pH 7.4) | MIC ([4]; pH 7.4, strain Hard) | MIC ([4]; pH 7.4, strain Peras) | MIC [5] | MIC [7] | MIC ([9]; TYPHI, pH 7.4, B typhi, Mueller Hinton Agar pH 7.4) | MIC ([9]; pH 7.4, C1 Oao, Mueller Hinton Agar pH 7.4) | MIC ([9]; pH 7.4, C2 Cuban, Mueller Hinton Agar pH 7.4) | MIC ([9]; pH 7.4, C2 Napc, Mueller Hinton Agar pH 7.4) | MIC ([9]; pH 7.4, Salmonella ent. 1, Mueller Hinton Agar pH 7.4) | MIC ([10]; 209P, pH 7.4, strain 209P) | MIC ([10]; pH 7.4, strain 59N) | MIC ([10]; pH 7.4, strain Gray) | MIC ([10]; pH 7.4, strain Wood) | MIC ([10]; pH 7.4, strain Zeigler) | MIC ([11]; pH 7.4, strain 27, Mueller Hinton Agar pH 7.4) | MIC ([11]; pH 7.4, strain C, Mueller Hinton Agar pH 7.4) | MIC ([11]; pH 7.4, strain Cruz, Mueller Hinton Agar pH 7.4) | MIC [15] | MIC [16] | MIC [19] | MIC ([20]; strain 3, after 96 hours) | MIC ([20]; strain 360, after 96 hours) | MIC [21]
75 µg/mL: MIC ([12]; strain 3, after 48 hours) | MIC ([12]; strain 5, after 48 hours) | MIC ([12]; strain 29, after 48 hours) | MIC ([12]; strain Bognay, after 48 hours) | MIC ([12]; strain Burnside, after 48 hours) | MIC ([12]; strain Collins, after 48 hours) | MIC ([12]; strain Fix, after 48 hours) | MIC ([12]; strain Fulcher, after 48 hours) | MIC ([12]; strain Lusk, after 48 hours) | MIC ([12]; strain Merkel, after 48 hours) | MIC ([12]; strain Tyner, after 48 hours)
